Results taken from PMC10065799, “High-throughput profiling of sequence recognition by tyrosine kinases and SH2 domains using bacterial peptide display” (eLife, 2023).

Target: T1, c-Abl kinase domain (Mus musculus, UniProt P00520)
T1 sequence (P00520 242-493 limits assumed): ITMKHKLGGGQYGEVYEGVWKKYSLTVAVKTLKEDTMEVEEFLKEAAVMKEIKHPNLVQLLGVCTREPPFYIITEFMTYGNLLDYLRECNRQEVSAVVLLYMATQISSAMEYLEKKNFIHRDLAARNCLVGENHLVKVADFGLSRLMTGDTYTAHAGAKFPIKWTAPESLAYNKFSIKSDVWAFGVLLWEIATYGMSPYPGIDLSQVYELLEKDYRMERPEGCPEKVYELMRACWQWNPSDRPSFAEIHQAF
Test: pTyr-Var library bacterial peptide display kinase screen (enrichment scores)
Type: biochemical
Conditions: variant versus reference peptide

## ATGLIYIGSHD [AASDH_Y870_T865A]
  c-Abl difference (mean log2 variant - mean log2 reference): 0.7644
